One compound from patent publication US5219825A, “Synergistic herbicidal compositions comprising herbicides which generate toxic oxygen radicals and chelating agents which inhibit their detoxification” (Yeda Research and Development Co., Ltd., priority 1986, dated 1993) can be followed below.

Common to all, as to format: in vivo
The test system of assay [1] is Conyza bonariensis low herbicide requiring biotype. Description: Photosynthesis (14CO2 fixation) of leaf discs removed 5 h after spray treatment. Particulars: foliar, acifluorfen 0 μM, DDC 0.5% alone, leaf discs removed 5 h after treatment, untreated control = 100. On the procedure: (§1) Similarly, both the paraquat resistant and sensitive biotypes of Conyza bonariensis were treated with two other oxidant generating herbicides. Atrazine (of the triazine group) is the most widely used oxidant generating herbicides in agriculture. We used various dilutions of a commercial wettable powder (Atranex 50WP-Agan Chemicals) to which we added 0.5% DDC. The effects were scored 24 h later. […] We also tested to see whether acifluorfen, a nitro diphenyl ether herbicide would be synergized. It is generally agreed that light and oxygen are required for its action via oxidant damage. We sprayed a commercial formulation of acifluorfen (Blazer, Rohm and Haas) to which were added 0.25% Tween-20 detergent, with and without DDC. The effects were scored 24 h later.
^b photosynthesis (^14 CO2 fixation) was used as an
additional measurement of phytotoxicity. Leaf discs were removed 5 h afte
treatment for measurement

Assay [2] relates to Conyza bonariensis paraquat tolerant (high herbicide requiring) biotype. The assay can be described thus: Malonyldialdehyde in tissue (lipoxidation, membrane damage) after spraying. Particulars: atrazine 0 μM; DDC 0.5% alone; high herbicide requiring biotype; untreated control = 100. On the procedure:
(§2) Seeds of two biotypes of Conyza bonariensis (L.) Cronq. (synonym C. linifolia) were obtained from Egypt. The paraquat sensitive biotype was gathered near Alexendria and seeds of the resistant type from the Tahrir irrigation district. They were obtained from Dr. Martin Parham in England. Seeds were germinated in a growth room with a 14 h light period at 25° C. Plants were transferred out of doors 24 h before being sprayed. The phytotoxicity of three herbicides representative of the three different modes of generating active oxygen species known at present. Commercial paraquat (Gramoxone-ICI Plant Protection Ltd) was formulated with 0.1% (w/v) Tween-20 (a non-ionic surfactant) for spraying. The response to the range of 10^-5 M to 10^-2 M paraquat was measured by spraying two plants per concentration to run-off in the early morning. All plants were exposed to sunlight for at least 13 h (1300 μE.m^-2s^-1 photosynthetically active radiation (PAR) at mid day). Commercial acifluorfen (Blazer, Rohm, and Hass, Philadelphia, Pa., USA) to which was added 0.25% Tween-20 was sprayed to run-off. The response to spraying was measured as with paraquat 24 h after spraying. Commercial atrazine (Atranex 50 WP-Agan) was sprayed at various rates in 0.25% Tween 20 to run off. Fully expanded, 8 to 10 cm long leaves from plants in the rosette stage were used in all experiments. Phytotoxicity of acifluorfen and paraquat was measured as CO2 fixation 24 h later as follows: Detached leaves were placed on wet filter paper in a sealed chamber with 5μ Ci^14 C-sodium bicarbonate. Tartaric acid was remotely dripped on the sodium bicarbonate to release ^14 CO2. Leaves were illuminated with […] (PAR) for 30 min. Eighty percent acetone was added and the mixture put under strong light to photobleach pigments and evaporate the acetone. A scintillation mixture of Lumax:xylene (45:55) was added to the leaves and remaining water. The samples were counted and the data expressed as DPM.cm^-2. Area was measured with a planimeter from photocopies of the leaves made prior to photosynthesis measurements. Phytotoxicity of atrazine was measured as the elevated level of malonyldialdehyde in the tissue. Malonyldialdehyde (as measured with thiobarbituric acid according to Dodge and Gillham (Asp. Appl. Biol 11 97 (1986)) is a measurement of lipoxidation of unsaturated fatty acids, and provides an excellent estimation of damage by active oxygen species.
(§3) ^b membrane damage was measured as malonyldialdehyde release
as §1

In assay [3] the test system is Conyza bonariensis paraquat sensitive (low herbicide requiring) biotype. The assay is described as above. The following applies: atrazine 0 μM; DDC 0.5% alone; low herbicide requiring biotype; untreated control = 100. The procedure:
as §2, §3, §1

Turning to `CCN(CC)C(=S)[S-].[Na+]` [DDC, Sodium diethyldithiocarbamate], the activity at 0.5 % in assay [1] was determined as 92%. Moreover, the results for the “membrane damage (malonyldialdehyde release)” value in assay [2] and in assay [3] were 112 and 125, respectively.
